{"source": "patent US20120329867A1", "about": "(SANOFI, priority 2010, published 2012)", "test_system": "AF/AFL patients", "assay": "EURIDIS and ADONIS post hoc analysis: adverse events and ECG changes by timing of amiodarone stop", "type": "in vivo, human", "conditions": "for QTc-Fridericia > or = 500 msec: unit assumed", "from_the_text": "Methods: In EURIDIS and ADONIS studies mentioned in the article of the New England Journal of Medicine, 357, 10, Sep.\nResults: Dronedarone decreased AF/AFL recurrence compared to placebo (HR=0.64 [95% CI 0.44-0.95], P=0.022) in this subgroup. […] All the results are included in the table 1 below.\nIn the table above, “A” means Amiodarone, “D” means” dronedarone, “PI” means Placebo, “n” is the number of patients tested with “PI” or “D”.", "key": {"[1]": {"conditions": "A stopped more than 2 days before randomization, n = 35"}, "[2]": {"conditions": "A stopped within 2 days before randomization, n = 98"}, "[3]": {"conditions": "No amiodarone treatment before randomization, n = 680"}}}
{"smiles": "CCCCc1oc2ccc(NS(C)(=O)=O)cc2c1C(=O)c1ccc(OCCCN(CCCC)CCCC)cc1", "note": "[Dronedarone, 2-n-Butyl-3-[4-(3-di-n-butylaminopropoxy)benzoyl]-5-methylsul phonamidobenzofuran]", "values": [{"measurement": "Bradyarrhythmia (%) (under adverse events with drug discontinuation)", "setting": "[1]", "result": 0, "unit": "%"}, {"measurement": "Bradyarrhythmia (%) (under serious adverse events)", "setting": "[1]", "result": 0, "unit": "%"}, {"measurement": "PR-interval > or = 200 msec and increase > or = 20 msec versus baseline", "setting": "[1]", "result": 22.9}, {"measurement": "Rate of Adverse Events with dronedarone discontinuation (%)", "setting": "[1]", "result": 20.0, "unit": "%"}, {"measurement": "Rate of Serious adverse events (%)", "setting": "[1]", "result": 17.1, "unit": "%"}, {"measurement": "QTc-Fridericia > or = 500 msec", "setting": "[1]", "result": 14.3, "unit": "%"}, {"measurement": "Bradyarrhythmia (%) (under adverse events with drug discontinuation)", "setting": "[2]", "result": 3.1, "unit": "%"}, {"measurement": "Bradyarrhythmia (%) (under serious adverse events)", "setting": "[2]", "result": 1, "unit": "%"}, {"measurement": "PR-interval > or = 200 msec and increase > or = 20 msec versus baseline", "setting": "[2]", "result": 25.8}, {"measurement": "Rate of Adverse Events with dronedarone discontinuation (%)", "setting": "[2]", "result": 8.2, "unit": "%"}, {"measurement": "Rate of Serious adverse events (%)", "setting": "[2]", "result": 15.3, "unit": "%"}, {"measurement": "QTc-Fridericia > or = 500 msec", "setting": "[2]", "result": 7.9, "unit": "%"}, {"measurement": "Bradyarrhythmia (%) (under adverse events with drug discontinuation)", "setting": "[3]", "result": 0.7, "unit": "%"}, {"measurement": "Bradyarrhythmia (%) (under serious adverse events)", "setting": "[3]", "result": 1.3, "unit": "%"}, {"measurement": "PR-interval > or = 200 msec and increase > or = 20 msec versus baseline", "setting": "[3]", "result": 28.0}, {"measurement": "Rate of Adverse Events with dronedarone discontinuation (%)", "setting": "[3]", "result": 9.1, "unit": "%"}, {"measurement": "Rate of Serious adverse events (%)", "setting": "[3]", "result": 13.7, "unit": "%"}, {"measurement": "QTc-Fridericia > or = 500 msec", "setting": "[3]", "result": 4.4, "unit": "%"}, {"measurement": "Tolerability", "setting": "small patient cohort switched rapidly from A to D", "result": "good tolerability"}]}
